Here are results for 11 molecules from US7592345B2, “Piperazine and [1,4]diazepan derivatives as NK antagonists” (Hoffmann-La Roche Inc., priority 2007, dated 2009).

The structures appear in SMILES notation.

This assay addresses T1, recombinant human NK3 receptor (Homo sapiens, UniProt P29371).
T1 construct: expressed in transfected cells; host or cells: HEK293 cells (transient expression), membranes
T1 sequence (P29371 1-465): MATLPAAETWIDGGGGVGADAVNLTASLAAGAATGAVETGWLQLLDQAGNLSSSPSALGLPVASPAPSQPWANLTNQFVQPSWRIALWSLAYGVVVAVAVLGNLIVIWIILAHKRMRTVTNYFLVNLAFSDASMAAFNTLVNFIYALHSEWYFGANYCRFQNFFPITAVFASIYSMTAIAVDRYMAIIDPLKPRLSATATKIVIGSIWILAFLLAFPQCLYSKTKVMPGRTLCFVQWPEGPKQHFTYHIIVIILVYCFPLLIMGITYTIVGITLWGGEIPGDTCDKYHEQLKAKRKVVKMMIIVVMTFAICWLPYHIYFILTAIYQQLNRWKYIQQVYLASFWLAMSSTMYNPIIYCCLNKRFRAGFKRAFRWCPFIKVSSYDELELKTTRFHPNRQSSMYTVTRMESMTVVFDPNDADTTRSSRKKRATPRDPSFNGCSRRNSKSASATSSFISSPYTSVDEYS
In words: [3H]SR142801 competition binding assay. Conditions: [3H]SR142801, membranes from HEK293 cells transiently expressing recombinant human NK3 receptor; read-out: hNK3 Ki. In short, it runs like this: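 Membranes from HEK293 cells transiently expressing human NK3 were incubated 75 min at RT with [3H]SR142801 at its KD and inhibitor (0.0003-10 μM) in Tris-HCl pH 7.4/MnCl2/phosphoramidon/BSA. Nonspecific binding used 10 μM SB222200. Ki from Hill-fitted IC50 via Cheng-Prusoff, duplicate determinations.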
A word on the Ki: it is a measure of affinity in units of concentration, obtained from inhibition or displacement. For `Cc1ccc(CN(C)C(=O)C(C)(CCN2CCN(S(C)(=O)=O)CC2)c2ccc(Cl)c(Cl)c2)cc1` (centres unmarked) [Example 22, 2-(3,4-Dichloro-phenyl)-4-(4-methanesulfonyl-piperazin-1-yl)-2,N-dimethyl-N-(4-methyl-benzyl)-butyramide], the inhibition constant (Ki) was 0.0774 µM.
As to `Cc1ccc(CN(C)C(=O)C(C)(CCN2CCN(S(C)(=O)=O)[C@@H](C)C2)c2ccc(Cl)c(Cl)c2)cc1` (stereo partly drawn) [Example 67, 2-(3,4-Dichloro-phenyl)-4-((S)-4-methanesulfonyl-3-methyl-piperazin-1-yl)-2,N-dimethyl-N-(4-methyl-benzyl)-butyramide], the Ki turned out to be 0.0992 µM.
Next, `CN(Cc1cccc(C(F)(F)F)c1)C(=O)C(C)(CCN1CCN(S(C)(=O)=O)CC1)c1ccc(Cl)c(Cl)c1` (centres unmarked) [Example 127, 2-(3,4-Dichloro-phenyl)-4-(4-methanesulfonyl-piperazin-1-yl)-2,N-dimethyl-N-(3-trifluoromethyl-benzyl)-butyramide]: 0.0784 µM.
Consider `CN(Cc1ccccc1Cl)C(=O)C(CCN1CCN(S(C)(=O)=O)CC1)c1ccc(Cl)c(Cl)c1` (centres unmarked) [Example 3, N-(2-Chloro-benzyl)-2-(3,4-dichloro-phenyl)-4-(4-methanesulfonyl-piperazin-1-yl)-N-methyl-butyramide], for which the Ki came to 0.655 µM.
Next, `CC(CCN1CCN2C(CCS2(=O)=O)C1)(C(=O)N[C@@H](CO)c1ccc(F)cc1)c1ccc(Cl)c(Cl)c1` (stereo partly drawn) [Example 137, 2-(3,4-Dichloro-phenyl)-4-(1,1-dioxo-hexahydro-1λ^6-thia-5,7a-diaza-inden-5-yl)-N-[(R)-1-(4-fluoro-phenyl)-2-hydroxy-ethyl]-2-methyl-butyramide]: 0.0305 µM.
Turning to `C[C@H]1CN(CCC(C)(C(=O)NCc2cc(F)ccc2C(F)(F)F)c2ccc(Cl)c(Cl)c2)CCN1S(C)(=O)=O` (stereo partly drawn) [Example 74, 2-(3,4-Dichloro-phenyl)-N-(5-fluoro-2-trifluoromethyl-benzyl)-4-((S)-4-methanesulfonyl-3-methyl-piperazin-1-yl)-2-methyl-butyramide], the Ki turned out to be 0.496 µM.
For the molecule `CC(CCN1CCCN(S(C)(=O)=O)CC1)(C(=O)NCc1cccc(OC(F)F)c1)c1ccc(Cl)c(Cl)c1` (centres unmarked) [Example 115, 2-(3,4-Dichloro-phenyl)-N-(3-difluoromethoxy-benzyl)-4-(4-methanesulfonyl-[1,4]diazepan-1-yl)-2-methyl-butyramide], the Ki came to 0.183 µM.
Next, `COc1cc(CN(C)C(=O)C(C)(CCN2CCN(S(C)(=O)=O)[C@H](C)C2)c2ccc(Cl)c(Cl)c2)ccc1OC(F)F` (stereo partly drawn) [Example 35, 2-(3,4-Dichloro-phenyl)-N-(4-difluoromethoxy-3-methoxy-benzyl)-4-((R)-4-methanesulfonyl-3-methyl-piperazin-1-yl)-2,N-dimethyl-butyramide]: 0.216 µM; `CN(Cc1ccc(F)c(C(F)(F)F)c1)C(=O)C(C)(CCN1CCCN(S(C)(=O)=O)CC1)c1ccc(Cl)c(Cl)c1` (centres unmarked) [Example 106, 2-(3,4-Dichloro-phenyl)-N-(4-fluoro-3-trifluoromethyl-benzyl)-4-(4-methanesulfonyl-[1,4]diazepan-1-yl)-2,N-dimethyl-butyramide]: 0.0092 µM; `CC(CCN1CCCN(S(C)(=O)=O)CC1)(C(=O)NCc1ccc(C#N)cc1)c1ccc(Cl)c(Cl)c1` (centres unmarked) [Example 124, N-(4-Cyano-benzyl)-2-(3,4-dichloro-phenyl)-4-(4-methanesulfonyl-[1,4]diazepan-1-yl)-2-methyl-butyramide]: 0.107 µM.
Take `C[C@@H]1CN(CCC(C)(C(=O)NCc2cc(C(F)(F)F)cc(C(F)(F)F)c2)c2ccc(Cl)c(Cl)c2)CCN1S(C)(=O)=O` (stereo partly drawn) [Example 34, N-(3,5-Bis-trifluoromethyl-benzyl)-2-(3,4-dichloro-phenyl)-4-((R)-4-methanesulfonyl-3-methyl-piperazin-1-yl)-2-methyl-butyramide]: the Ki was 0.0481 µM.
